Nine molecules from PubChem BioAssay (NCI) can be followed below.

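Briefly, cells in 96-well plates were exposed to five compound concentrations for 48 h, and endpoints were estimated by linear interpolation. Abbreviation: GI50, concentration required for 50% inhibition of growth. At the TGI there is no net growth.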 Where only a bound is given, the exact number is not on record here.

Test systems include SR leukemia; NCI-H522 lung; HOP-92 NSCLC; BT-549 breast; EKVX NSCLC; CAKI-1 renal; SF-295 CNS; SK-OV-3 ovarian; OVCAR-3 ovarian; RPMI-8226 leukemia.
Assay in all cases: growth of human tumour cells (NCI), 48 h

In the case of `COc1cc(-c2oc3c(OC)cc(OC)c(O)c3c(=O)c2OC)cc(OC)c1OC`, the TGI is over 100 µM in the assay with SR leukemia; 40.2 µM in the assay with NCI-H522 lung; over 100 µM in the assay with HOP-92 NSCLC; over 100 µM with BT-549 breast; over 100 µM with EKVX NSCLC; over 100 µM in the assay with CAKI-1 renal. The TGI with SF-295 CNS was 7.55 µM; in the assay with SK-OV-3 ovarian it was 22.9 µM; in the assay on OVCAR-3 ovarian, over 100 µM; with RPMI-8226 leukemia, over 100 µM.
As for `CC[C@@H](C(=O)[C@H](C)[C@H](O)[C@@H](C)[C@H]1O[C@H]([C@@H](CC)C(=O)N(CC)CC)CC[C@H]1C)C1O[C@]2(C=C[C@@H](O)[C@]3(CC[C@@](C)([C@H]4CC[C@](O)(CC)[C@H](C)O4)O3)O2)[C@H](C)C[C@@H]1C` (stereo not given in full), the GI50 was 2.91 µM with SR leukemia; 2.34 µM with NCI-H522 lung; 1.45 µM in the assay on HOP-92 NSCLC; 3.33 µM with BT-549 breast; 2.58 µM in the assay with EKVX NSCLC; 2.12 µM in the assay with CAKI-1 renal. Moreover, the GI50 in the assay with SF-295 CNS was 2.49 µM; in the assay on SK-OV-3 ovarian, 3.06 µM; in the assay with OVCAR-3 ovarian, 2.64 µM; in the assay with RPMI-8226 leukemia it was 2.05 µM. The TGI came to 13.6 µM in the assay on SR leukemia; 7.74 µM with NCI-H522 lung; 5.43 µM in the assay on HOP-92 NSCLC; 14.8 µM in the assay on BT-549 breast; 11.4 µM in the assay with EKVX NSCLC; 8.06 µM with CAKI-1 renal. The TGI with SF-295 CNS was 9.81 µM; in the assay with SK-OV-3 ovarian, 10.1 µM; with OVCAR-3 ovarian, 8.16 µM; in the assay with RPMI-8226 leukemia, 6.15 µM.
On to `C[C@@H]1CCC([C@@H](C)[C@H]2CC[C@H]3[C@@H]4CC[C@H]5C[C@@H](O)CC[C@]5(C)[C@H]4CC[C@]23C)=NC1`, for which the TGI is over 100 µM in the assay with SR leukemia; 30.7 µM with NCI-H522 lung; over 100 µM with HOP-92 NSCLC; over 85 µM in the assay on BT-549 breast; over 100 µM with EKVX NSCLC; 66.6 µM in the assay with CAKI-1 renal. Besides, the TGI is over 43.6 µM with SF-295 CNS, over 100 µM in the assay with SK-OV-3 ovarian, over 100 µM in the assay with OVCAR-3 ovarian and over 20.4 µM with RPMI-8226 leukemia.
`COc1cc2ncnc(Nc3cccc(Cl)c3F)c2cc1OC(=O)N1CCN(C)C[C@H]1C`: the GI50 is over 45.8 µM with SR leukemia; 0.523 µM with NCI-H522 lung; 14.2 µM in the assay with HOP-92 NSCLC; over 42.2 µM in the assay on BT-549 breast; 0.253 µM in the assay with EKVX NSCLC; 0.555 µM in the assay with CAKI-1 renal. The GI50 with SF-295 CNS is over 38.1 µM; in the assay with SK-OV-3 ovarian, 1.12 µM; with OVCAR-3 ovarian, over 33.6 µM; in the assay on RPMI-8226 leukemia, over 42.6 µM. The TGI with SR leukemia was over 71.8 µM; in the assay on NCI-H522 lung it was over 31.3 µM; in the assay on HOP-92 NSCLC, over 54.8 µM; in the assay on BT-549 breast, over 67.2 µM; in the assay with EKVX NSCLC, over 61.2 µM; in the assay on CAKI-1 renal, over 54.1 µM. Further, the TGI with SF-295 CNS was over 56 µM; in the assay on SK-OV-3 ovarian it was over 32.1 µM; in the assay on OVCAR-3 ovarian, over 61.8 µM; in the assay with RPMI-8226 leukemia, over 68.2 µM.
Regarding `c1ccc2cc(NCNc3ccc4ccccc4c3)ccc2c1`, the TGI in the assay on SR leukemia was 31.4 µM; in the assay on NCI-H522 lung, 49.5 µM; in the assay with HOP-92 NSCLC, 26.6 µM; in the assay on BT-549 breast, 53.2 µM; in the assay with EKVX NSCLC, 65.5 µM; in the assay on CAKI-1 renal it was 42.7 µM. Moreover, the TGI in the assay on SF-295 CNS is 33.9 µM; in the assay on SK-OV-3 ovarian, over 100 µM; with OVCAR-3 ovarian it was 29.2 µM; in the assay on RPMI-8226 leukemia, 29.1 µM.
As for `COc1cc(C(=O)N2CCN(c3ccccc3)CC2)c2ccccc2n1`, the GI50 was 0.0537 µM in the assay with SR leukemia; 0.0324 µM in the assay with NCI-H522 lung; 1.47 µM with HOP-92 NSCLC; 0.475 µM in the assay with BT-549 breast; 0.243 µM in the assay with EKVX NSCLC; 0.043 µM in the assay on CAKI-1 renal. Further, the GI50 with SF-295 CNS is 0.0276 µM; with SK-OV-3 ovarian, 0.0993 µM; with OVCAR-3 ovarian, 0.0241 µM; with RPMI-8226 leukemia, 0.247 µM. Moreover, the TGI with SR leukemia is over 100 µM; in the assay with NCI-H522 lung it was 0.475 µM; in the assay with HOP-92 NSCLC, 29.2 µM; with BT-549 breast, over 100 µM; with EKVX NSCLC, over 100 µM; with CAKI-1 renal, over 22.5 µM. Also, the TGI with SF-295 CNS was 0.115 µM; with SK-OV-3 ovarian it was over 100 µM; in the assay on OVCAR-3 ovarian it was 0.0687 µM; in the assay on RPMI-8226 leukemia it was over 100 µM.
As for `COc1cc(/C(=C2/O[C@@H]([C@H]3COC(C)(C)O3)[C@H]3OC(C)(C)O[C@@H]23)c2ccc3ccccc3c2)cc(OC)c1OC`, the GI50 in the assay on SR leukemia is over 100 µM; in the assay with NCI-H522 lung it was 2.27 µM; in the assay on HOP-92 NSCLC, 2.67 µM; in the assay with BT-549 breast, 3.22 µM; in the assay with EKVX NSCLC, 5.59 µM; in the assay on CAKI-1 renal, 4.54 µM. For the same molecule, the GI50 in the assay with SF-295 CNS was 6.92 µM; in the assay on SK-OV-3 ovarian it was 4.37 µM; in the assay on OVCAR-3 ovarian, 2.39 µM; in the assay on RPMI-8226 leukemia, 33.3 µM. In addition, the TGI with SR leukemia is over 100 µM; with NCI-H522 lung, 6.54 µM; in the assay on HOP-92 NSCLC, 13.3 µM; in the assay with BT-549 breast, 8.1 µM; in the assay on EKVX NSCLC, over 100 µM; in the assay on CAKI-1 renal it was over 100 µM. Moreover, the TGI is 52.1 µM in the assay with SF-295 CNS, over 100 µM with SK-OV-3 ovarian, 5.67 µM in the assay on OVCAR-3 ovarian and over 100 µM in the assay on RPMI-8226 leukemia.
Turning to `CC1(C)CC[C@]2(C(=O)O)CC[C@]3(C)C(=CC[C@@H]4[C@@]5(C)C[C@H](O)[C@H](O)[C@@](C)(C(=O)O)[C@@H]5CC[C@]43C)[C@@H]2C1`, the TGI with SR leukemia, in the assay on NCI-H522 lung, in the assay with HOP-92 NSCLC, in the assay with BT-549 breast, with EKVX NSCLC and with CAKI-1 renal was over 100 µM throughout. The TGI with SF-295 CNS, in the assay with SK-OV-3 ovarian, in the assay on OVCAR-3 ovarian and in the assay on RPMI-8226 leukemia was over 100 µM each time.
On to `C=C1C(=O)O[C@H]2C[C@@H]1CC/C(C)=C/CC/C(C)=C/CC[C@@]2(C)O`, for which the GI50 with SR leukemia was 26.5 µM; with NCI-H522 lung it was 27.4 µM; in the assay with HOP-92 NSCLC it was 19.5 µM; in the assay with BT-549 breast, 24.2 µM; in the assay on EKVX NSCLC it was over 100 µM; in the assay with CAKI-1 renal, 34.6 µM. In addition, the GI50 with SF-295 CNS is over 100 µM; in the assay with SK-OV-3 ovarian, over 100 µM; in the assay on OVCAR-3 ovarian, 51 µM; in the assay on RPMI-8226 leukemia it was 20.4 µM. Moreover, the TGI in the assay on SR leukemia is 63.6 µM; in the assay on NCI-H522 lung it was 79 µM; with HOP-92 NSCLC it was 42.7 µM; in the assay on BT-549 breast, 59.9 µM; in the assay on EKVX NSCLC, over 100 µM; in the assay on CAKI-1 renal, over 100 µM. For the same molecule, the TGI is over 100 µM in the assay on SF-295 CNS, over 100 µM in the assay on SK-OV-3 ovarian, over 100 µM in the assay on OVCAR-3 ovarian and 43.5 µM in the assay on RPMI-8226 leukemia.
